Where “and” joins values, the source holds several entries; their conditions need not be identical. Equal entries are not always repeated.
Tests used:
SH-SY5Y cells [1] = test: Neuroprotection against okadaic acid (tau hyperphosphorylation), MTT; assay type: cell-based; conditions: 1 μM, 24 h pre-incubation, 18 h co-incubation with OA 20 nM
primary rat glial cells = test: Nitrite production in LPS-stimulated primary glial cultures (Griess); assay type: cell-based; conditions: Glial cell, 24 h pre-incubation, 18 h co-incubation with LPS 1 μg/mL, read-out: IC50 nitrite reduction
From the text: Therefore, we envisaged the study of compounds 5a–t as potential anti-inflammatory agents. We used primary rat glial cells treated with lipopolysaccharide (LPS) to induce the production of nitrites and ROS as a model of glial activation. Nitrite production is directly proportional to the expression of the iNOS, that is over-expressed when LPS activates glial cells. ROS production is proportional to NOX activation after stimulation with LPS. Results are summarized in Table 2 as IC50s of nitrite production reduction and ROS production reduction. We have included sulforaphane as control in all experiments (see the Supporting Information).
Glial cells were pre-incubated with increasing concentrations of compounds for 24 hours. Then, treatments were removed and cells were incubated with LPS (1 μg/mL) alone or in presence of each compound at the desired concentration. Nitrite production was assessed 18 hours later by modified Griess assay. Briefly, samples (150 μl) were mixed with dapsone (75 μl) and NEDA (75 μl), and the mixture was incubated at room temperature for 5 min. Light absorption was measured at 550 nm in a microplate reader (Labtech, Offenburg, Germany). All data were normalized to basal nitrite production, considering this value as 100% of nitrite production. IC50 values were calculated from dose-response curves represented as percentage of nitrite production reduction induced by the different concentrations of each compound.
Mixed glial cultures were obtained from cerebral cortex of 2-5 day-old Sprague-Dawley rats. After removal of blood vessels and meninges, the forebrains were dissociated in DMEM/F12 medium. After mechanical dissociation, cells were plated (3x10^5 cells/ml) in DMEM/F12 medium with 20% fetal bovine serum (FBS) and 1 % penicillin/streptomycin (10,000 units), at 37 °C and in a 5 % CO2-supplemented air atmosphere. After 5 days, medium was substituted by DMEM/F12 medium with 10 % FBS. Cells were cultured for 7-10 days before treatment.
Primary rat glial cells were treated with compounds 5a-t at increasing concentrations (3, 10, 30 and 60 µM) during 24 h. Thereafter, treatments were removed and glial cells were co-incubated with increasing concentrations of each compound and LPS (1 µg/mL) for 18 h more. At the end of this period, supernatant was collected and the presence of nitrites was analyzed by the Griess method with modifications.^20 Each plate included non-treated cells as basal nitrite production, sulforaphane (SFN, 10 µM) as positive control. Briefly, samples (150 µl) were mixed with DAPSONE (75 µl) and NEDA (75 µl), and the mixture was incubated at room temperature for 5 min. Light absorption was measured at 550 nm in a microplate reader (Labtech, Offenburg, Germany). All data were normalized to basal nitrite production, considering this value as 100% of nitrite production. EC50 values were calculated from dose-response curves represented as percentage of nitrite production reduction induced by the different concentrations of each compound. Concentration response curves were fitted by non-linear regression analysis of individual concentration-response curves using GraphPad Prism software (San Diego, CA, USA). EC50 values are expressed as mean ± SEM of four different experiments in triplicate.

GSK3β = target: T1, GSK3β (Homo sapiens, UniProt P49841); test: GSK3β inhibition, luminescence Kinase-Glo assay; assay type: biochemical; conditions: for Ki: calculated from IC50 by Cheng-Prusoff equation, Km ATP 2.345 µM, read-out: Ki (apparent equilibrium dissociation constant); for IC50: four concentrations 0.1, 1, 10, 30 μM, ATP 1 μM, 1 h
T1 construct: purchased Promega V1991
Procedure: GSK3β inhibitory activity was evaluated using the method developed by Baki[66], with modifications. Compounds were dissolved in assay buffer, containing 40 mM Tris (pH 7.5), 20 mM MgCl2, 0.1 mg/ml BSA (bovine serum albumin) and 50 μM dithiothreitol (DTT) at the desired concentrations. Firstly, 10 μl of enzyme (10 ng) and 10 μl of each compound were mixed for 30 min. Then, 20 μl of a mixture of ATP (1 μM) and GSK3β peptidic substrate were added to each well. The mixture was incubated for 60 min at 30 °C. Thereafter, the remaining ATP concentration was measured with the Kinase-Glo system following instructions from the supplier. Luminescence was measured in an Orion II microplate luminometer (Berthold, Germany) as relative light units (RLU). […] IC50 values were calculated by non-linear regression analysis of individual concentration-response curves using GraphPad Prism 5.0 software (San Diego, CA, USA).
The ability of the compounds to inhibit GSK3β was evaluated using the method developed by Baki^9 with some modifications. The tested compounds were dissolved in assay buffer, containing 40 mM Tris (pH 7.5), 20 mM MgCl2, 0.1 mg/ml BSA (bovine serum albumin) and 50 µM dithiothreitol (DTT), to achieve final reaction concentrations of 0.1, 1, 10 and 30 µM. […] The GSK3β inhibition assay was performed in white 96-well plates, in duplicates. Firstly, 10 µl of enzyme (10 ng) were added to each well, followed by 10 µl of the compounds at the desired concentration. After 30 minutes, 20 µl of a mixture of ATP and GSK3β peptidic substrate were added to each well, achieving a final concentration of 1 µM of ATP and 25 of µM peptidic substrate. The mixture was incubated at 30 °C for 60 minutes. Once the reaction was finished, the remaining ATP concentration was measured by adding 40 µl/well of Kinase-Glo reagent. The luminescence was measured in an Orion II microplate luminometer (Berthold, Germany) as relative light units (RLU). The luminescence recorded is proportional to the amount of ATP present in each well.
Apparent Ki for each compound were calculated from GSK3β Km value for ATP, applying the Cheng-Prusoff equation^10,11 in its simplified form: Ki = IC50/(1+([S]/Km)), in which S refers to the ATP concentration and Km is the Michaelis constant of the substrate for GSK3β.

[2] = target: T2, Nrf2-Keap1 protein-protein interaction (Homo sapiens, UniProt Q14145); test: Fluorescence polarization assay of Nrf2-Keap1 interaction; assay type: binding; conditions: ligand concentration 10 µM; read-out: FP % Inhibition (± SEM)
T2 construct: a solution of the Keap1 Kelch domain (200 nM)
Procedure: Data are presented the means ± SEM of two experiments performed in triplicate.
The FP assay was carried out as previously described.^16,17 Inhibitors (10 µM) were plated onto untreated Corning® black 96 well plates containing a solution of the Keap1 Kelch domain (200 nM) and the fluorescent peptide FITC-β-DEETGEF-OH (1 nM) in Dulbecco’s Phosphate Buffered Saline (DPBS) at pH 7.4 (11% final DMSO concentration, 100 µL final volume). Following a 30 min incubation under slow agitation and away from light at room temperature, the plates were transferred to a PHERAstar microplate reader (BMG Labtech, Ortenberg, Germany) and the fluorescence polarisation was recorded. All measurements were recorded in triplicate.

SH-SY5Y cells [3] = test: Neuroprotection against rotenone/oligomycin A (R/O), MTT; assay type: cell-based; conditions: 1 μM, 24 h pre-incubation, 24 h co-incubation with rotenone/oligomycin A 30/10 μM
Procedure: Figure 5 Compounds 5a–t exert neuroprotection in in vitro models of AD. […] Then, treatments were removed and cells were co-incubated with each treatment and okadaic acid for 18 h or R/O for 24 h. Cell viability was measured by the MTT reduction assay. Values are expressed as mean ± SEM of five independent experiments in triplicate. ***p < 0.001; **p < 0.01 respect to toxic stimuli treated cells, considered as 0% of protection.
As stated in the Introduction, oxidative stress is considered one of the main causes of neuronal death in AD. Therefore, we were interested in evaluating the potential antioxidant activity of compounds 5a–t in a model of oxidative stress and energy depletion, which in turn increase cell death. For this purpose, we selected the combination of rotenone (30 μM) and oligomycin A (10 μM) (R/O) to induce neurotoxicity as a model system[23][40] to evaluate the potential neuroprotective activity of the compounds. Melatonin, a well-known antioxidant natural compound, was included as a positive control.
(§1) A pre- and co-incubation protocol was followed. Cells were pre-incubated with the corresponding compound at 1 μM in neuroblastoma cells culture medium. After 24 h, medium was removed and replaced with 1% FBS neuroblastoma culture media containing the corresponding compound (1 μM) and the toxic stimuli, the mixture of rotenone and oligomycin A (30 μM/10 μM respectively) or okadaic acid at 20 nM. Cells were co-incubated for further 24 h with the rotenone and oligomycin A solution or 18 h with the okadaic acid solution. Control cells were incubated with the same amount of DMSO without any drug. After the co-incubation period, cell viability was assessed by the MTT-reduction method.
as §1, with “A pre” for “A pre-”, “1 µM” for “1 μM”, “compound at 1 µM” for “compound (1 μM)”, “stimuli, namely a” for “stimuli, the”, “(30 µM / 10 µM” for “(30 μM/10 μM”, “drug. […]” for “drug.”
The percentage of protection was calculated as follows: the percentage of cell survival obtained with the toxic stimuli-treated cells subtracted to 100 was normalized to 100 % of cell death. The percentage of protection was obtained by subtracting the percentage of cell death in presence of the tested compound to 100%.

Keap1 Kelch domain = target: T3, Keap1 Kelch domain (Homo sapiens, UniProt Q14145); test: Differential scanning fluorimetry assay; assay type: binding; conditions: ligand concentration 10 µM
T3 construct: A solution of the Keap1 Kelch domain protein (5 µM)
T3 sequence (Q14145 321-609 limits assumed): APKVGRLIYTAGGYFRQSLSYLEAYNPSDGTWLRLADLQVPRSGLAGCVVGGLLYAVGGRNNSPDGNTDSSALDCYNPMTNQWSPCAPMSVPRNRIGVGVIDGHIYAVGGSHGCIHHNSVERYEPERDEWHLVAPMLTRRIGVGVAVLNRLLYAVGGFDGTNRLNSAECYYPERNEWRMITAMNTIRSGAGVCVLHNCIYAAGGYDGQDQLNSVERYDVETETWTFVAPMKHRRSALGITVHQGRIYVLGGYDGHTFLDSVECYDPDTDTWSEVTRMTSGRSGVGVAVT
Procedure: A solution of the Keap1 Kelch domain protein (5 µM) and detection dye SYPRO® orange (5X) in DPBS at pH 7.4 was added onto a qPCR plate containing the compound inhibitor (10 µM, 10% final DMSO concentration, 40 µL final volume). The plate was sealed using an optical foil seal and covered with aluminum foil to protect the dye from light. The plate was then transferred to a plate centrifuge and spun down briefly (200 G, 1 min, room temperature) to remove any bubbles and collect the solution at the bottom of the wells. Following a 30 min incubation at room temperature, the plate was placed into a 7500 Real time PCR machine and the fluorescence intensity at an excitation of 465 nm and emission of 580 nm was recorded during a temperature scan from 25 °C to 95 °C with a temperature ramping rate of 1 °C/min. All measurements were run in triplicate. Life Technologies software was used to set up the run on 7500 Software v.2.0.0 and the initial data processing was carried out on Protein thermal shift solution software. The raw data were exported to MS Excel and analysis was performed using a custom script provided by the Structural Genomics Consortium Oxford.^18 The temperature range over which the protein unfolding occurred was selected and the maximum and minimum (at temperatures below the maximum intensity) fluorescence intensities within this range were determined. The processed data were fitted to the Boltzmann equation by non-linear regression using the Origin Pro software.

T1 sequence (P49841 whole entry): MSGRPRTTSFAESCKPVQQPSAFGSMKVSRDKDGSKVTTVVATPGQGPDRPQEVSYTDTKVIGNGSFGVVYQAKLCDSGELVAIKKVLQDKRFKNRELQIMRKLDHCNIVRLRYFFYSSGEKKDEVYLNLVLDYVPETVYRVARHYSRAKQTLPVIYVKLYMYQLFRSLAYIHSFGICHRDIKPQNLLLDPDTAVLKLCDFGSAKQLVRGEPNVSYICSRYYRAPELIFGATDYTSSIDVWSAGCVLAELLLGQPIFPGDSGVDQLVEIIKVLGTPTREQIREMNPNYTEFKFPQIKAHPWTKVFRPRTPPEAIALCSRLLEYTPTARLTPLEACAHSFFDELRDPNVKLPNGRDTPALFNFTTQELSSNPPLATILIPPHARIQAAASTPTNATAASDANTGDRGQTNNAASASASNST
T2 sequence (Q14145 321-609 limits assumed): as the sequence (Q14145 321-609 limits assumed) above

IC50 (primary rat glial cells) | Ki (GSK3β) | IC50 (GSK3β) | inhibition at 10 µM [2] | ΔTm at 10 µM (Keap1 Kelch domain) | SMILES | Percentage of protection against okadaic acid toxicity (SH-SY5Y cells [1]) | Percentage of protection against R/O toxicity (SH-SY5Y cells [3])
13.4 ± 1.44 µM | 15 µM | 21.4 ± 4.6 µM |  |  | Cc1cccc(C2C(C#N)=C(N)Oc3n[nH]c(C)c32)c1 (stereo not shown) [Compound 5f, 6-Amino-3-methyl-4-(3-methylphenyl)-2,4-dihydropyrano[2,3-c]pyrazole-5-carbonitrile] | over 50% | 
34.3 ± 3.84 µM |  | > 30 µM |  |  | Cc1ccccc1C1C(C#N)=C(N)Oc2[nH]nc(C)c21 (stereo not shown) [Compound 5e, 6-Amino-3-methyl-4-(2-methylphenyl)-2,4-dihydropyrano[2,3-c]pyrazole-5-carbonitrile] |  | 
12.9 ± 0.86 µM | 5.04 µM | 7.2 ± 0.7 µM | < 0% | -0.43 ± 0.49 °C | COc1cccc(C2C(C#N)=C(N)Oc3n[nH]c(C)c32)c1 (stereo not shown) [Compound 5c, 6-Amino-4-(3-methoxyphenyl)-3-methyl-2,4-dihydropyrano[2,3-c]pyrazole-5-carbonitrile] |  | 55.3%
15.8 ± 5.23 µM | 2.72 µM | 3.9 µM and 3.89 µM |  |  | Cc1[nH]nc2c1C(c1ccccc1[N+](=O)[O-])C(C#N)=C(N)O2 (stereo not shown) [Compound 5n, 6-Amino-3-methyl-4-(2-nitrophenyl)-2,4-dihydropyrano[2,3-c]pyrazole-5-carbonitrile] | 34.7% | 
22.3 ± 3.82 µM | 12.3 µM | 17.5 ± 1.9 µM |  |  | Cc1ccc(C2C(C#N)=C(N)Oc3[nH]nc(C)c32)cc1 (stereo not shown) [Compound 5g, 6-Amino-3-methyl-4-(4-methylphenyl)-2,4-dihydropyrano[2,3-c]pyrazole-5-carbonitrile] |  | 
26.7 ± 1.95 µM |  | > 30 µM |  |  | Cc1n[nH]c2c1C(c1ccccc1Br)C(C#N)=C(N)O2 (stereo not shown) [Compound 5l, 6-Amino-4-(2-bromophenyl)-3-methyl-2,4-dihydropyrano[2,3-c]pyrazole-5-carbonitrile] |  | 24.1%
43.6 ± 6.45 µM | 11.5 µM | 16.4 ± 1.8 µM |  |  | COc1ccccc1C1C(C#N)=C(N)Oc2n[nH]c(C)c21 (stereo not shown) [Compound 5b, 6-Amino-4-(2-methoxyphenyl)-3-methyl-2,4-dihydropyrano[2,3-c]pyrazole-5-carbonitrile] |  | 39.1%
> 60 µM |  | > 30 µM |  |  | Cc1n[nH]c2c1C(c1cccs1)C(C#N)=C(N)O2 (stereo not shown) [Compound 5r, 6-Amino-3-methyl-4-(thiophen-2-yl)-2,4-dihydropyrano[2,3-c]pyrazole-5-carbonitrile] |  | 
26.7 ± 4.86 µM | 11.4 µM | 16.3 ± 2.8 µM |  |  | Cc1[nH]nc2c1C(c1ccc([N+](=O)[O-])cc1)C(C#N)=C(N)O2 (stereo not shown) [Compound 5p, 6-Amino-3-methyl-4-(4-nitrophenyl)-2,4-dihydropyrano[2,3-c]pyrazole-5-carbonitrile] |  | 
26 ± 2.74 µM | 4.41 µM | 6.29 ± 2.6 µM |  |  | Cc1n[nH]c2c1C(c1ccc(Cl)cc1)C(C#N)=C(N)O2 (stereo not shown) [Compound 5k, 6-Amino-4-(4-chlorophenyl)-3-methyl-2,4-dihydropyrano[2,3-c]pyrazole-5-carbonitrile] |  | 
5.11 ± 0.65 µM | 14.4 µM | 20.5 ± 8 µM |  |  | Cc1[nH]nc2c1C(c1cccc(Cl)c1)C(C#N)=C(N)O2 (stereo not shown) [Compound 5j, 6-Amino-4-(3-chlorophenyl)-3-methyl-2,4-dihydropyrano[2,3-c]pyrazole-5-carbonitrile] |  | 
7.23 ± 1.1 µM |  | > 30 µM |  |  | Cc1[nH]nc2c1C(c1cccnc1)C(C#N)=C(N)O2 (stereo not shown) [Compound 5s, 6-Amino-3-methyl-4-(pyridin-3-yl)-2,4-dihydropyrano[2,3-c]pyrazole-5-carbonitrile] |  | 57.9%
> 60 µM |  | > 30 µM |  |  | Cc1[nH]nc2c1C(c1ccccc1)C(C#N)=C(N)O2 (stereo not shown) [Compound 5a, 6-Amino-3-methyl-4-phenyl-2,4-dihydropyrano[2,3-c]pyrazole-5-carbonitrile] | 27.7% | 
40.8 ± 2.23 µM | 5.04 µM | 7.2 ± 1.6 µM |  |  | Cc1[nH]nc2c1C(c1cccc([N+](=O)[O-])c1)C(C#N)=C(N)O2 (stereo not shown) [Compound 5o, 6-Amino-3-methyl-4-(3-nitrophenyl)-2,4-dihydropyrano[2,3-c]pyrazole-5-carbonitrile] | 48% | 
11.4 ± 2.27 µM | 2.64 µM | 3.77 ± 2 µM | < 0% | -0.14 ± 0.35 °C | Cc1[nH]nc2c1C(c1ccc(Br)cc1)C(C#N)=C(N)O2 (stereo not shown) [Compound 5m, 6-Amino-4-(4-bromophenyl)-3-methyl-2,4-dihydropyrano[2,3-c]pyrazole-5-carbonitrile] | over 50% | 
35.4 ± 2.57 µM | 4.63 µM | 6.6 ± 1.7 µM |  |  | COc1ccc(C2C(C#N)=C(N)Oc3n[nH]c(C)c32)cc1 (stereo not shown) [Compound 5d, 6-Amino-4-(4-methoxyphenyl)-3-methyl-2,4-dihydropyrano[2,3-c]pyrazole-5-carbonitrile] |  | 38.8%
17.5 ± 2.45 µM | 10.4 µM | 14.8 ± 4.8 µM |  |  | Cc1n[nH]c2c1C(c1ccco1)C(C#N)=C(N)O2 (stereo not shown) [Compound 5q, 6-Amino-4-(furan-2-yl)-3-methyl-2,4-dihydropyrano[2,3-c]pyrazole-5-carbonitrile] |  | 
11.3 ± 1.15 µM | 12.5 µM | 17.9 ± 1.5 µM |  |  | Cc1n[nH]c2c1C(c1ccc(F)cc1)C(C#N)=C(N)O2 (stereo not shown) [Compound 5h, 6-Amino-4-(4-fluorophenyl)-3-methyl-2,4-dihydropyrano[2,3-c]pyrazole-5-carbonitrile] |  | 
> 60 µM |  |  |  |  | Cc1n[nH]c2c1C(c1ccccc1Cl)C(C#N)=C(N)O2 (stereo not shown) [Compound 5i, 6-Amino-4-(2-chlorophenyl)-3-methyl-2,4-dihydropyrano[2,3-c]pyrazole-5-carbonitrile] |  | 
